{"source": "paper PMC11374673", "about": "“Discovery of isoquinoline sulfonamides as allosteric gyrase inhibitors with activity against fluoroquinolone-resistant bacteria” (Nature Chemistry, 2024)", "key": {"[1]": {"biological_target": "T1, E. coli DNA gyrase (Escherichia coli, UniProt P0AES4)", "T1 construct": "purchased Inspiralis Limited", "T1 sequence (P0AES4 whole entry)": "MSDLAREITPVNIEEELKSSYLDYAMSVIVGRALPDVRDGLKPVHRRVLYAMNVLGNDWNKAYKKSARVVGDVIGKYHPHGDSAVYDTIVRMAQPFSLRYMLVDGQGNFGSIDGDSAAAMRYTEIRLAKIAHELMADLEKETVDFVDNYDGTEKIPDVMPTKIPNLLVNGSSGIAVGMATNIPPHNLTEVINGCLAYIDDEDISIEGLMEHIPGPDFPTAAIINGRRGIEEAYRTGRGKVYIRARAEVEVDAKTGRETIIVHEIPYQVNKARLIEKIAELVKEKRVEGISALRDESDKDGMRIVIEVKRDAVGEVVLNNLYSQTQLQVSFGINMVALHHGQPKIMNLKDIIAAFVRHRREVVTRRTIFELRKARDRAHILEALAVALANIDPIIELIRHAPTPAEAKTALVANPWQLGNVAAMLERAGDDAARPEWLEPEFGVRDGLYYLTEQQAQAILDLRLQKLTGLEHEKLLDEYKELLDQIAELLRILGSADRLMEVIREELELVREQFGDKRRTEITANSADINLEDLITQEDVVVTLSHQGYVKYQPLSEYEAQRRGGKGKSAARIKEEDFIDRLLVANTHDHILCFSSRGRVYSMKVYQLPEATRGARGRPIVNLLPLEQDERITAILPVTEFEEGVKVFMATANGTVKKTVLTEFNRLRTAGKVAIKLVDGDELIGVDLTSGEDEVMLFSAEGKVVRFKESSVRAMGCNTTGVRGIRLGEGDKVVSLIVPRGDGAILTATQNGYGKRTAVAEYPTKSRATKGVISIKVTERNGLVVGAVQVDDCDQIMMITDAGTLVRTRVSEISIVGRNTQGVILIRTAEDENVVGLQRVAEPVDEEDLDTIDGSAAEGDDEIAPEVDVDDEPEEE", "experiment": "Gyrase supercoiling inhibition, gel-based", "type": "biochemical", "method": "Of this stock solution, 27 µl was aliquoted for each reaction in 1.5 ml Eppendorf tubes and supplemented with 0.6 µl of the appropriate compound dilution or corresponding solvent with a final DMSO concentration of 2%. The reactions were started with 3 µl of enzyme (1 U for WT gyrase retrieved from Inspiralis Limited or 25–30 nM gyrase variants purified in house) in dilution buffer (50 mM Tris–HCl (pH 7.5), 100 mM KCl, 2 mM DTT, 1 mM EDTA and 50% (wt/vol) glycerol) for a final volume of 30 µl. Reactions were run at 37 °C for 30 min and stopped with the addition of 30 µl STEB buffer (40% (wt/vol) sucrose, 100 mM Tris–HCl pH 8, 100 mM EDTA, 0.5 mg ml^−1 bromophenol blue) and 30 µl of a chloroform:isoamyl alcohol solution (24:1 vol/vol). After brief vortexing and centrifugation at 2,300g for 1 min, 20 µl of the aqueous phase was loaded onto 1% (wt/vol) agarose gels in TAE ([…]) gel. The gels were run at 85 V for 2 h followed by staining (15 min) in 1 µg ml^−1 ethidium bromide and destaining (5–10 min) in water. […] IC50 curves were generated in GraphPad Prism (v9.0.0) using the non-linear regression curve fit variable slope with four parameters and least squares regression. A. baumannii and P. aeruginosa gyrase supercoiling inhibition assays were set up in the same way as E. coli gyrase supercoiling assays. The enzyme was retrieved from Inspiralis Ltd. (PAG1001 and ABG1001) and tested in-house for activity with ×5 U enzyme used for each reaction."}, "[2]": {"biological_target": "(UniProt Q2FCU6)", "experiment": "Gyrase supercoiling inhibition", "type": "biochemical, Acinetobacter baumannii", "details": "read-out: IC50 supercoiling, A. baumannii gyrase", "method": "(§1) Of this stock solution, 27 µl was aliquoted for each reaction in 1.5 ml Eppendorf tubes and supplemented with 0.6 µl of the appropriate compound dilution or corresponding solvent with a final DMSO concentration of 2%. The reactions were started with 3 µl of enzyme (1 U for WT gyrase retrieved from Inspiralis Limited or 25–30 nM gyrase variants purified in house) in dilution buffer (50 mM Tris–HCl (pH 7.5), 100 mM KCl, 2 mM DTT, 1 mM EDTA and 50% (wt/vol) glycerol) for a final volume of 30 µl. Reactions were run at 37 °C for 30 min and stopped with the addition of 30 µl STEB buffer (40% (wt/vol) sucrose, 100 mM Tris–HCl pH 8, 100 mM EDTA, 0.5 mg ml^−1 bromophenol blue) and 30 µl of a chloroform:isoamyl alcohol solution (24:1 vol/vol). After brief vortexing and centrifugation at 2,300g for 1 min, 20 µl of the aqueous phase was loaded onto 1% (wt/vol) agarose gels in TAE (Tris–acetate […]) gel. The gels were run at 85 V for 2 h followed by staining (15 min) in 1 µg ml^−1 ethidium bromide and destaining (5–10 min) in water. DNA was visualized (602/50, UV Trans, auto optimal exposure) with a ChemiDoc MP (Bio-Rad Laboratories Inc., equipped with ImageLab Touch Software v2.0.0.27) and the percentage of supercoiled DNA relative to the total amount material per lane was determined with ImageLab 6.1 software (Bio-Rad Laboratories Inc.) or ImageJ[47] software. […]"}, "[3]": {"biological_target": "T2, P. aeruginosa gyrase (Pseudomonas aeruginosa, UniProt P48372)", "T2 construct": "purchased Inspiralis Ltd. PAG1001", "T2 sequence (P48372 whole entry)": "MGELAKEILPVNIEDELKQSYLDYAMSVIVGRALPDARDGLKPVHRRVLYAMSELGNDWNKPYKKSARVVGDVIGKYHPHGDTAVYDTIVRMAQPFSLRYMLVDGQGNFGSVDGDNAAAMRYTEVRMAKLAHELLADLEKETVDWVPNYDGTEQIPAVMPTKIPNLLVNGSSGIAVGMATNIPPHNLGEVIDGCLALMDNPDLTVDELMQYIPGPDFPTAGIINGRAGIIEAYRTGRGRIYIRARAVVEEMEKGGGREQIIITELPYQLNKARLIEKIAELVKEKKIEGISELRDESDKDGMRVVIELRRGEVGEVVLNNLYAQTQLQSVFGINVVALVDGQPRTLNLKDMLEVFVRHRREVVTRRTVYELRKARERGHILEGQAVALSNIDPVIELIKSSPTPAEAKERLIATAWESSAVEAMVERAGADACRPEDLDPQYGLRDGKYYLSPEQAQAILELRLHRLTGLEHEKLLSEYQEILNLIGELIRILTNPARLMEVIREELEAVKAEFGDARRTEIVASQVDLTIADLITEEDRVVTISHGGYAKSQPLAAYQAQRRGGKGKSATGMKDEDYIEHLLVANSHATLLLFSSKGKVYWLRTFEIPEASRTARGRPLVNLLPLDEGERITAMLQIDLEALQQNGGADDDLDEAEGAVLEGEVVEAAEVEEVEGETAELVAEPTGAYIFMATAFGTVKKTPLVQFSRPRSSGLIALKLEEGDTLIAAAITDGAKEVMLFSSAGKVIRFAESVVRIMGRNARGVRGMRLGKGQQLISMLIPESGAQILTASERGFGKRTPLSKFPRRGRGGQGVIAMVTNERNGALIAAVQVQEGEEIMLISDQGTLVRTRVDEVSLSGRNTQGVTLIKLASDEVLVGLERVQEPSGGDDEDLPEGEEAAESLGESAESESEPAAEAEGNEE", "T2 sequence (Q9I7C2 whole entry, further chain)": "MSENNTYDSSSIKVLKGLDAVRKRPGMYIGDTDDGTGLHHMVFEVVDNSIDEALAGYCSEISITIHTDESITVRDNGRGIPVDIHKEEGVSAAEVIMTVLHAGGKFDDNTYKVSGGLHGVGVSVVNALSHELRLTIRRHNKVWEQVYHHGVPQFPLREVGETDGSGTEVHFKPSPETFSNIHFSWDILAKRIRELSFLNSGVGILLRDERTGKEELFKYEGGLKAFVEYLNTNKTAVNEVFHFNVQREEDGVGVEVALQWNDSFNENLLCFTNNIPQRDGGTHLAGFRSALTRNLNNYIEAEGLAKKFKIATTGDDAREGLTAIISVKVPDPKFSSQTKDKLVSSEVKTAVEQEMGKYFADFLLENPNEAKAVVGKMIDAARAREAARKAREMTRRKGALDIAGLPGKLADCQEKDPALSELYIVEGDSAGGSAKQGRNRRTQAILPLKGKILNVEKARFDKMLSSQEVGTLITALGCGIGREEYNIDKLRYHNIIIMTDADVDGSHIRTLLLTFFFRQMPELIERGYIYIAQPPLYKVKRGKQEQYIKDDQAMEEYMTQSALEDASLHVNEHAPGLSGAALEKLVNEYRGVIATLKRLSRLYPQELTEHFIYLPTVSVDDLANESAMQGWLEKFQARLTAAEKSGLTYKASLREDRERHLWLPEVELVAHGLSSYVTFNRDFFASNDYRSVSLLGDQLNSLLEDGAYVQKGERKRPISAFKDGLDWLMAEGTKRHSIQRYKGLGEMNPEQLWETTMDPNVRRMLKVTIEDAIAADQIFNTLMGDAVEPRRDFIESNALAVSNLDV", "experiment": "Gyrase supercoiling inhibition", "type": "biochemical", "method": "as §1"}, "[4]": {"test_system": "E. coli", "experiment": "Checkerboard assay LEI-800 with CIP", "type": "cell-based, Escherichia coli"}, "[5]": {"details": "Ciprofloxacin 0 nM + LEI-800 0.1 µM"}, "[6]": {"details": "Ciprofloxacin 0 nM + LEI-800 0.2 µM"}, "[7]": {"details": "Ciprofloxacin 0 nM + LEI-800 0.4 µM"}, "[8]": {"details": "Ciprofloxacin 0 nM + LEI-800 0.8 µM"}, "[9]": {"details": "Ciprofloxacin 0 nM + LEI-800 3.1 µM"}, "[10]": {"details": "Ciprofloxacin 0 nM + LEI-800 6.2 µM"}}, "note": "pIC50: −log10 of the molar value. Where “and” joins values, the source holds several entries; their conditions need not be identical. Equal entries are not always repeated.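 For checkerboard plate reading, Average values in this document: bacterial growth read as OD600 after 20 h at 37 °C with shaking, each drug pair tested in triplicate wells.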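 For checkerboard plate reading, replicate wells in this document: bacterial growth read as OD600 after 20 h at 37 °C with shaking, each drug pair tested in triplicate wells.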"}
{"smiles": "O=S(=O)(NC[C@@H]1CC[C@H](c2ccc(-c3cccnc3)cc2)N1)c1cccc2cnccc12", "note": "[LEI-800]", "values": [{"measurement": "pIC50", "setting": "[1]", "value": 7.46}, {"measurement": "fold more potent than CIP", "setting": "[1]; supercoiling IC50 ratio", "value": "> 25", "unit": "fold"}, {"measurement": "pIC50", "setting": "[2]", "value": 6.99}, {"measurement": "pIC50", "setting": "[3]", "value": 7.02}, {"measurement": "checkerboard plate reading, Average values", "setting": "[4]; [5]", "value": 0.7858}, {"measurement": "checkerboard plate reading, replicate wells", "setting": "[4]; [5]", "value": "0.7683 and 0.7669 and 0.8222"}, {"measurement": "checkerboard plate reading, Average values", "setting": "[4]; [6]", "value": 0.7715}, {"measurement": "checkerboard plate reading, replicate wells", "setting": "[4]; [6]", "value": "0.7509 and 0.7706 and 0.7931"}, {"measurement": "checkerboard plate reading, Average values", "setting": "[4]; [7]", "value": 0.7601}, {"measurement": "checkerboard plate reading, replicate wells", "setting": "[4]; [7]", "value": "0.7802 and 0.7598 and 0.7404"}, {"measurement": "checkerboard plate reading, Average values", "setting": "[4]; [8]", "value": 0.5878}, {"measurement": "checkerboard plate reading, replicate wells", "setting": "[4]; [8]", "value": "0.6002 and 0.5903 and 0.5728"}, {"measurement": "checkerboard plate reading, Average values", "setting": "[4]; [9]", "value": 0.291}, {"measurement": "checkerboard plate reading, replicate wells", "setting": "[4]; [9]", "value": "0.2991 and 0.2865 and 0.2872"}, {"measurement": "checkerboard plate reading, Average values", "setting": "[4]; [10]", "value": 0.1602}, {"measurement": "checkerboard plate reading, replicate wells", "setting": "[4]; [10]", "value": "0.157 and 0.1619 and 0.1616"}, {"measurement": "checkerboard plate reading, Average values", "setting": "[4]; Ciprofloxacin 0 nM + LEI-800 […]", "value": 0.4748}]}
